Our source for the Ki values is patent US10988478B1, “Pyrazolo[1,5a]pyrimidine derivatives as IRAK4 modulators” (Genentech, Inc., priority 2015, dated 2021).

As a reminder, the Ki is the dissociation constant of the complex between target and ligand, obtained from inhibition or displacement.

Chain of human IRAK4 (Q9NWZ3 whole entry, the tested form may be a part): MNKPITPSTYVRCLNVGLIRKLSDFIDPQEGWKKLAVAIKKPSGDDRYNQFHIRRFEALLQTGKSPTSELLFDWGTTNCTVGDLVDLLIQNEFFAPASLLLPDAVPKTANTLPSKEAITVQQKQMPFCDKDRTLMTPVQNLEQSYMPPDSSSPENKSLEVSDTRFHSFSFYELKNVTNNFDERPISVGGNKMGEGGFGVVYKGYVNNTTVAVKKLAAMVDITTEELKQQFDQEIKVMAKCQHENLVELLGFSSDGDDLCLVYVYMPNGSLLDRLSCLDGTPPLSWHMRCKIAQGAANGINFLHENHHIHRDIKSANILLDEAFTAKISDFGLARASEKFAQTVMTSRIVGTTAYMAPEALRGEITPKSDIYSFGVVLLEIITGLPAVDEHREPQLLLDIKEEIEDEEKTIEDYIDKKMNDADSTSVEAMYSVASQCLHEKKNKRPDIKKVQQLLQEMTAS

In the assay the target is human IRAK4 (Homo sapiens (Human), UniProt Q9NWZ3). The assay can be described thus: IRAK4 kinase inhibition, Transcreener fluorescence polarization ADP assay. Conditions: recombinant full-length His6-IRAK4; 125 uM ATP; 90 min; Ki computed using ATP Km 642 uM. It is filed as biochemical. How it is done:
Compounds were assayed for inhibition of human IRAK4 and IRAK1 catalytic activity using recombinant enzyme produced from insect cells. Full-length IRAK4 protein, carrying an N-terminal His6-Tag, was obtained from Life Technologies (Carlsbad, Calif., USA). The IRAK1 construct was produced internally and was comprised of IRAK1 residues Arg194 to Ser712, preceded by an NH2-terminal His6 tag and the coding sequence for glutathione-S-transferase.
A general note: Fluorescence polarisation rises when a labelled molecule tumbles more slowly, as on binding a larger partner.
Consider `CC1(C)Cc2cc(NC(=O)c3cnn4cccnc34)c(N3CCc4[nH]cnc4C3)cc2O1` [Example 238, N-(2,2-Dimethyl-6-(1,4,6,7-tetrahydro-5H-imidazo[4,5-c]pyridin-5-yl)-2,3-dihydrobenzofuran-5-yl)pyrazolo[1,5-a]pyrimidine-3-carboxamide], for which the inhibitory constant (Ki) was 36 nM. The figure for `CN1CC2(Cc3cc(NC(=O)c4cnn5cccnc45)c(N4CCOCC4)cc3O2)C1` [Example 146, N-(1-methyl-6′-morpholino-3′H-spiro[azetidine-3,2′-benzofuran]-5′-yl)pyrazolo[1,5-a]pyrimidine-3-carboxamide] is 27 nM; for `O=C(Nc1cc2c(cc1N1CCOCC1)C(=O)N(CC(F)F)C2)c1cnn2cccnc12` [Example 174, N-[2-(2,2-difluoroethyl)-6-morpholino-1-oxo-isoindolin-5-yl]pyrazolo[1,5-a]pyrimidine-3-carboxamide] it is 20 nM; for `C[C@@]1(C(F)F)Cc2cc(NC(=O)c3cnn4cccnc34)c(N3CCOCC3)cc2O1` [Example 51, (S)—N-(2-(Difluoromethyl)-2-methyl-6-morpholino-2,3-dihydrobenzofuran-5-yl)pyrazolo[1,5-a]pyrimidine-3-carboxamide] it is 9.6 nM. The figure for `O=C(Nc1cc2c(cc1OCC(F)F)OC1(CCNCC1)C2)c1cnn2cccnc12` [Example 377, N-(6-(2,2-Difluoroethoxy)-3H-spiro[benzofuran-2,4′-piperidin]-5-yl)pyrazolo[1,5-a]pyrimidine-3-carboxamide] is 11 nM. The figure for `NC(=O)CN1CCN(c2cc3c(cc2NC(=O)c2cnn4cccnc24)CN(C2CCOCC2)C3=O)CC1` [Example 177, N-[6-[4-(2-amino-2-oxo-ethyl)piperazin-1-yl]-1-oxo-2-tetrahydropyran-4-yl-isoindolin-5-yl]pyrazolo[1,5-a]pyrimidine-3-carboxamide] is 2 nM; for `CC1(C)Cc2cc(NC(=O)c3cnn4cccnc34)c(OC[C@H]3CNC(=O)C3)cc2O1` [Example 307, N-[2,2-Dimethyl-6-[[(3R)-5-oxopyrrolidin-3-yl]methoxy]-3H-benzofuran-5-yl]pyrazolo[1,5-a]pyrimidine-3-carboxamide] it is 32 nM; for `Cc1nc(CN2CCN(c3cc4c(cc3NC(=O)c3cnn5cccnc35)CC(C)(C)O4)CC2)c[nH]1` [Example 507, N-(2,2-dimethyl-6-(4-((2-methyl-1H-imidazol-4-yl)methyl)piperazin-1-yl)-2,3-dihydrobenzofuran-5-yl)pyrazolo[1,5-a]pyrimidine-3-carboxamide] it is 3.2 nM.

`Cc1oc(=O)[nH]c1CN1CCN(c2cc3c(cc2NC(=O)c2cnn4cccnc24)CC(C)(C)O3)CC1` [Example 479, N-[2,2-Dimethyl-6-[4-[(5-methyl-2-oxo-3H-oxazol-4-yl)methyl]piperazin-1-yl]-3H-benzofuran-5-yl]pyrazolo[1,5-a]pyrimidine-3-carboxamide]: the Ki was 6.7 nM. In the case of `CC1(C)Cc2cc(NC(=O)c3cnn4cccnc34)c(N3CCC(F)(CN)CC3)cc2O1` [Example 389, N-[6-[4-(Aminomethyl)-4-fluoro-1-piperidyl]-2,2-dimethyl-3H-benzofuran-5-yl]pyrazolo[1,5-a]pyrimidine-3-carboxamide] it was 1.3 nM.

Consider `CC1(C)Cc2cc(NC(=O)c3cnn4cccnc34)c(OCC3CCOC3)cc2O1` (stereo not drawn) [Example 296, N-(2,2-Dimethyl-6-((tetrahydrofuran-3-yl)methoxy)-2,3-dihydrobenzofuran-5-yl)pyrazolo[1,5-α]pyrimidine-3-carboxamide], for which the Ki was found to be 18 nM. In the case of `N[C@H]1CO[C@@H](CN2Cc3cc(NC(=O)c4cnn5cccnc45)c(N4CCOCC4)cc3C2=O)OC1` [Example 449, N-(2-(((2R,5R)-5-amino-1,3-dioxan-2-yl)methyl)-6-morpholino-1-oxoisoindolin-5-yl)pyrazolo[1,5-a]pyrimidine-3-carboxamide] it was 80 nM; in that of `CC1(C(=O)O)Cc2cc(NC(=O)c3cnn4cccnc34)c(N3CCOCC3)cc2O1` (stereo not shown) [Example 38, 2-Methyl-6-morpholino-5-(pyrazolo[1,5-a]pyrimidine-3-carboxamido)-2,3-dihydrobenzofuran-2-carboxylicacid], 360 nM; in that of `C[C@]1(C(F)F)Cc2cc(NC(=O)c3cnn4cccnc34)c(N3CCOCC3)cc2O1` [Example 50, (R)—N-(2-(Difluoromethyl)-2-methyl-6-morpholino-2,3-dihydrobenzofuran-5-yl)pyrazolo[1,5-a]pyrimidine-3-carboxamide], 6.2 nM. The figure for `CC1(C)Cc2cc(NC(=O)c3cnn4cccnc34)c(N3CCC(C(N)=O)C3)cc2O1` (stereo not shown) [Example 236, N-(6-(3-Carbamoylpyrrolidin-1-yl)-2,2-dimethyl-2,3-dihydrobenzofuran-5-yl)pyrazolo[1,5-a]pyrimidine-3-carboxamide] is 13 nM; for `CC1(C)Cc2cc(NC(=O)c3cnn4cccnc34)c(N3Cc4cn[nH]c4C3)cc2O1` [Example 246, N-(6-(4,6-dihydropyrrolo[3,4-c]pyrazol-5(1H)-yl)-2,2-dimethyl-2,3-dihydrobenzofuran-5-yl)pyrazolo[1,5-a]pyrimidine-3-carboxamide] it is 6 nM. For `CC(C)(O)[C@H](F)CN1Cc2cc(NC(=O)c3cnn4cc(C(N)=O)cnc34)c(N3CCOCC3)cc2C1=O` [Example 286, N3-[2-[(2R)-2-Fluoro-3-hydroxy-3-methyl-butyl]-6-morpholino-1-oxo-isoindolin-5-yl]pyrazolo[1,5-a]pyrimidine-3,6-dicarboxamide], the Ki was found to be 2 nM. In the case of `CC(C)(O)[C@H](F)CN1Cc2cc(NC(=O)c3cnn4cccnc34)c(N3CCC([C@@H](O)C(F)F)CC3)cc2C1=O` (single isomer, unassigned) [Example 283] it was 2 nM; in that of `O=C(CN1CCN(c2cc3c(cc2NC(=O)c2cnn4cccnc24)CC2(CCNCC2)O3)CC1)NC1CC1` [Example 375, N-(6-(4-(2-(Cyclopropylamino)-2-oxoethyl)piperazin-1-yl)-3H-spiro[benzofuran-2,4′-piperidin]-5-yl)pyrazolo[1,5-a]pyrimidine-3-carboxamide], 47 nM.

As to `O=C(Nc1cc2c(cc1N1CCOCC1)C(=O)N(C1COC1)C2)c1cnn2cccnc12` [Example 251, N-[6-Morpholino-2-(oxetan-3-yl)-1-oxo-isoindolin-5-yl]pyrazolo[1,5-a]pyrimidine-3-carboxamide], the Ki was found to be 29 nM. In the case of `O=C(Nc1cc2c(cc1N1CCOCC1)OCCN2)c1cnn2cccnc12` [Example 9, N-(7-Morpholino-3,4-dihydro-2H-benzo[b][1,4]oxazin-6-yl)pyrazolo[1,5-a]pyrimidine-3-carboxamide] it was 98 nM. In the case of `CC1(CO)Cc2cc(NC(=O)c3cnn4cc(C(F)F)cnc34)c(N3CCOCC3)cc2O1` (stereo not shown) [Example 75, 6-(Difluoromethyl)-N-[2-(hydroxymethyl)-2-methyl-6-morpholino-3H-benzofuran-5-yl]pyrazolo[1,5-a]pyrimidine-3-carboxamide] it was 65 nM; in that of `CC1(C)Oc2cc(NC(=O)c3cnn4cccnc34)c(N3CCOCC3)cc2C1=O` [Example 359, N-(2,2-dimethyl-5-morpholino-3-oxo-2,3-dihydrobenzofuran-6-yl)pyrazolo[1,5-a]pyrimidine-3-carboxamide], 260 nM. In the case of `CC1(C)Cc2cc(NC(=O)c3cnn4cccnc34)c(N3CCCC(O)CC3)cc2O1` (stereo not shown) [Example 185, N-[6-(4-hydroxyazepan-1-yl)-2,2-dimethyl-3H-benzofuran-5-yl]pyrazolo[1,5-a]pyrimidine-3-carboxamide] it was 5.8 nM. Take `C[C@]1(COC(F)F)Cc2cc(NC(=O)c3cnn4cccnc34)c(N3CCOCC3)cc2O1` [Example 155, (R)—N-(2-((difluoromethoxy)methyl)-2-Methyl-6-morpholino-2,3-dihydrobenzofuran-5-yl)pyrazolo[1,5-a]pyrimidine-3-carboxamide]: the Ki was 22 nM.

For the compound `CC(C)(O)C1CCN(c2cc3c(cc2NC(=O)c2cnn4cccnc24)C[C@](C)(CO)O3)CC1` [Example 324, N-[(2R)-2-(Hydroxymethyl)-6-[4-(1-hydroxy-1-methyl-ethyl)-1-piperidyl]-2-methyl-3H-benzofuran-5-yl]pyrazolo[1,5-α]pyrimidine-3-carboxamide], the Ki amounted to 4.8 nM. In the case of `C[C@H](O)CN1CCN(c2cc3c(cc2NC(=O)c2cnn4cccnc24)CC(C)(C)O3)CC1` [Example 474, (S)-N-(6-(4-(2-hydroxypropyl)piperazin-1-yl)-2,2-dimethyl-2,3-dihydrobenzofuran-5-yl)pyrazolo[1,5-a]pyrimidine-3-carboxamide] it was 20 nM; in that of `CC(C)(O)[C@H](F)CN1Cc2cc(NC(=O)c3cnn4cc(Cl)cnc34)c(N3CCOCC3)cc2C1=O` [Example 271, 6-Chloro-N-[2-[(2R)-2-fluoro-3-hydroxy-3-methyl-butyl]-6-morpholino-1-oxo-isoindolin-5-yl]pyrazolo[1,5-a]pyrimidine-3-carboxamide], 1.7 nM. In the case of `CC1(CO)Cc2cc(NC(=O)c3cnn4cc(Cl)cnc34)c(N3CCN(CC(F)F)CC3)cc2O1` (stereo not shown) [Example 168] it was 3.6 nM; in that of `CN(Cc1ccc(C#N)cc1)c1cc2c(cc1NC(=O)c1cnn3cccnc13)CC(C)(C)O2` [Example 205, N-(6-((4-cyanobenzyl)(methyl)amino)-2,2-dimethyl-2,3-dihydrobenzofuran-5-yl)pyrazolo[1,5-a]pyrimidine-3-carboxamide], 86 nM. The figure for `O=C(Nc1cc2c(cc1N1CCOCC1)OC1(CCN(CC(F)F)CC1)C2)c1cnn2cccnc12` [Example 370, N-[1′-(2,2-difluoroethyl)-6-morpholino-spiro[3H-benzofuran-2,4′-piperidine]-5-yl]pyrazolo[1,5-a]pyrimidine-3-carboxamide] is 5.8 nM.
